From patent US20250081967A1, “PESTICIDALLY ACTIVE HETEROCYCLIC DERIVATIVES WITH SULFOXIMINE CONTAINING SUBSTITUENTS” (SYNGENTA CROP PROTECTION AG, priority 2021, published 2025) come the findings set out here.

Bounds are passed on as bounds.

Holding throughout (assay type): in vivo
The test system of series [1] is Myzus persicae. Kind of series: Activity against Myzus persicae (green peach aphid), feeding/contact activity, sunflower leaf discs. The note with it: Myzus persicae, foliar; for mortality at 200 ppm: 144 h, application rate 200 ppm, feeding/contact, 6 days after infestation. As for the experimental part: Example B4: Activity Against Myzus persicae (Green Peach Aphid) Feeding/Contact Activity
Sunflower leaf discs were placed on agar in a 24-well microtiter plate and sprayed with aqueous test solutions prepared from 10′000 ppm DMSO stock solutions. After drying, the leaf discs were infested with an aphid population of mixed ages. The samples were assessed for mortality 6 days after infestation.

In a further series the test system is Bemisia tabaci. Kind of series: Activity against Bemisia tabaci (cotton white fly), cotton leaf discs. Conditions: foliar; for mortality at 200 ppm: 144 h, application rate 200 ppm, adult white flies, 6 days after incubation. As for the experimental part: Example B6: Activity Against Bemisia tabaci (Cotton White Fly)
Cotton leaf discs were placed on agar in 24-well microtiter plates and sprayed with aqueous test solutions prepared from 10′000 ppm DMSO stock solutions. After drying the leaf discs were infested with adult white flies. The samples were checked for mortality 6 days after incubation.

The subject of series [2] is Myzus persicae. Kind of series: Activity against Myzus persicae (green peach aphid), systemic activity, pea seedlings. Conditions: for mortality at 24 ppm: Myzus persicae, 144 h, test rate 24 ppm, systemic, 6 days after placing seedlings in test solutions. As for the experimental part: Example B5: Activity Against Myzus persicae (Green Peach Aphid) Systemic Activity
Roots of pea seedlings infested with an aphid population of mixed ages were placed directly in the aqueous test solutions prepared from 10′000 DMSO stock solutions. The samples were assessed for mortality 6 days after placing seedlings in test solutions.

Another series deals with Euschistus heros. Kind of series: Activity against Euschistus heros (neotropical brown stink bug), soybean leaf. Conditions: 120 h, application rate 200 ppm, N-2 nymphs, 5 days after infestation, read-out: effect in at least one of the two categories (mortality or growth inhibition). As for the experimental part: Example B7: Activity Against Euschistus heros (Neotropical Brown Stink Bug)
Soybean leaf on agar in 24-well microtiter plates were sprayed with aqueous test solutions prepared from 10′000 ppm DMSO stock solutions. After drying the leaf were infested with N-2 nymphs. The samples were assessed for mortality and growth inhibition in comparison to untreated samples 5 days after infestation.

Another series relates to Diabrotica balteata. The series can be described thus: Activity against Diabrotica balteata (corn root worm), maize sprouts. Conditions: for percent effect (mortality or growth inhibition) at 200 ppm: 96 h, application rate 200 ppm, L2 larvae, 4 days after infestation, read-out: effect in at least one of the two categories (mortality or growth inhibition). As for the experimental part: Example B3: Activity Against Diabrotica Balteata (Corn Root Worm)
Maize sprouts placed onto an agar layer in 24-well microtiter plates were treated with aqueous test solutions prepared from 10′000 ppm DMSO stock solutions by spraying. After drying, the plates were infested with L2 larvae (6 to 10 per well). The samples were assessed for mortality and growth inhibition in comparison to untreated samples 4 days after infestation.

The subject of series [3] is Plutella xylostella. The series can be described thus: Activity against Plutella xylostella (diamond back moth), artificial diet, L2 larvae. Conditions: 120 h, application rate 200 ppm, 5 days after infestation, read-out: effect in at least one of the two categories (mortality or growth inhibition). As for the experimental part: Example B2: Activity Against Plutella xylostella (Diamond Back Moth)
24-well microtiter plates with artificial diet were treated with aqueous test solutions prepared from 10′000 ppm DMSO stock solutions by pipetting. After drying, the plates were infested with L2 larvae (10 to 15 per well). The samples were assessed for mortality and growth inhibition in comparison to untreated samples 5 days after infestation.

A further series deals with Spodoptera littoralis. Kind of series: Activity against Spodoptera littoralis (Egyptian cotton leaf worm), cotton leaf discs. The note with it: foliar, 72 h, application rate 200 ppm, L1 larvae, 3 days after infestation, read-out: control (mortality, anti-feeding effect or growth inhibition). As for the experimental part: Example B1: Activity Against Spodoptera littoralis (Egyptian Cotton Leaf Worm)
Cotton leaf discs were placed onto agar in 24-well microtiter plates and sprayed with aqueous test solutions prepared from 10′000 ppm DMSO stock solutions. After drying the leaf discs were infested with five L1 larvae. The samples were assessed for mortality, anti-feeding effect, and growth inhibition in comparison to untreated samples 3 days after infestation. Control of Spodoptera littoralis by a test sample is given when at least one of the categories mortality, anti-feedant effect, and growth inhibition is higher than the untreated sample.

For series [4], the system named is Plutella xylostella. Kind of series: Activity against Plutella xylostella (diamond back moth), artificial diet, eggs. The note with it: 192 h, application rate 200 ppm, 8 days after infestation, read-out: effect in at least one of the two categories (mortality or growth inhibition). As for the experimental part:
Example B9: Activity Against Plutella xylostella (Diamond Back Moth)
24-well microtiter plates with artificial diet were treated with aqueous test solutions prepared from 10′000 ppm DMSO stock solutions by pipetting. After drying, Plutella eggs were pipetted through a plastic stencil onto a gel blotting paper and the plate was closed with it. The samples were assessed for mortality and growth inhibition in comparison to untreated samples 8 days after infestation.

What is called mortality is the share of the test organisms that died. Take `CCS(=N)(=O)c1cc(C2(C#N)CC2)cnc1-c1nc2cc(C(F)(F)F)nnc2n1C` (racemic) [Compound P2, 1-[5-(ethylsulfonimidoyl)-6-[7-methyl-3-(trifluoromethyl)imidazo[4,5-c]pyridazin-6-yl]-3-pyridyl]cyclopropanecarbonitrile]: the mortality at 200 ppm in the series with Myzus persicae [1] and in the series with Bemisia tabaci was at least 80% in each case. In the series with Myzus persicae [2], this compound came in with a mortality at 24 ppm of at least 80%. In addition, the percent effect (mortality or growth inhibition) at 200 ppm in the series with Euschistus heros and with Diabrotica balteata was at least 80% throughout.

With `CCS(=N)(=O)c1cc(OC(C)(C)C#N)cnc1-c1cn2ccc(C(F)(F)F)cc2n1` (racemic) [Compound P3, 2-[[5-(ethylsulfonimidoyl)-6-[7-(trifluoromethyl)imidazo[1,2-a]pyridin-2-yl]-3-pyridyl]oxy]-2-methyl-propanenitrile], the percent effect (mortality or growth inhibition) at 200 ppm with Plutella xylostella [3] and in the series on Diabrotica balteata was at least 80% each time. In the series on Myzus persicae [1], this compound returned a mortality at 200 ppm of at least 80%. The percent control (mortality, anti-feedant effect or growth inhibition) at 200 ppm in the series with Spodoptera littoralis is at least 80%.

As for `CCS(=N)(=O)c1cc(C2(C#N)CC2)cnc1-c1nc2cc(C(F)(F)F)cnc2n1C` (racemic) [Compound P16, 1-[5-(ethylsulfonimidoyl)-6-[3-methyl-6-(trifluoromethyl)imidazo[4,5-b]pyridin-2-yl]-3-pyridyl]cyclopropanecarbonitrile], in the series on Plutella xylostella [3], the percent effect (mortality or growth inhibition) at 200 ppm was at least 80%. Further, the mortality at 200 ppm with Myzus persicae [1] and in the series on Bemisia tabaci was at least 80% in each case. In the series on Myzus persicae [2], this compound gave a mortality at 24 ppm of at least 80%.

For `CCS(=N)(=O)c1cc(OC(C)(C)C#N)c(C)nc1-c1nc2cc(C(F)(F)F)ncc2n1C` (racemic) [Compound P17, 2-[[5-(ethylsulfonimidoyl)-2-methyl-6-[3-methyl-6-(trifluoromethyl)imidazo[4,5-c]pyridin-2-yl]-3-pyridyl]oxy]-2-methyl-propanenitrile], the percent effect (mortality or growth inhibition) at 200 ppm with Plutella xylostella [3] is at least 80%. In addition, the mortality at 200 ppm with Myzus persicae [1] and with Bemisia tabaci was at least 80% each time. The same compound yielded a mortality at 24 ppm in the series with Myzus persicae [2] of at least 80%. Also, the percent control (mortality, anti-feedant effect or growth inhibition) at 200 ppm with Spodoptera littoralis was at least 80%.

`CCS(=N)(=O)c1cc(C2(C#N)CC2)ccc1-c1nc2cc(C(F)(F)F)ncc2n1C` (racemic) [Compound P18, 1-[3-(ethylsulfonimidoyl)-4-[3-methyl-6-(trifluoromethyl)imidazo[4,5-c]pyridin-2-yl]phenyl]cyclopropanecarbonitrile]: the mortality at 200 ppm with Myzus persicae [1] and in the series with Bemisia tabaci was at least 80% in each case. In the series with Myzus persicae [2], the mortality at 24 ppm was at least 80%. The percent effect (mortality or growth inhibition) at 200 ppm with Euschistus heros and in the series with Diabrotica balteata was at least 80% in each case.

In the case of `CCS(=N)(=O)c1cc(OC(C)(C)C#N)cnc1-c1nc2cc(C(F)(F)F)n(C3CC3)c(=O)c2n1C` (single isomer, unassigned) [Compound P1-A, 2-[[6-[5-cyclopropyl-3-methyl-4-oxo-6-(trifluoromethyl)imidazo[4,5-c]pyridin-2-yl]-5-(ethylsulfonimidoyl)-3-pyridyl]oxy]-2-methyl-propanenitrile], the mortality at 200 ppm in the series on Myzus persicae [1] and in the series on Bemisia tabaci was at least 80% each time. The mortality at 50 ppm in the series with Myzus persicae [1] (Myzus persicae (contact), concentration 50 ppm) was determined as 100%. The same compound came in with a mortality at 24 ppm with Myzus persicae [2] of at least 80%. Besides, the percent effect (mortality or growth inhibition) at 200 ppm in the series on Euschistus heros and in the series with Diabrotica balteata was at least 80% throughout. In the series on Spodoptera littoralis, the percent control (mortality, anti-feedant effect or growth inhibition) at 200 ppm was at least 80%.

On to `CCS(=N)(=O)c1cc(OC(C)(C)C#N)c(C)nc1-c1nc2cc(C(F)(F)F)cnc2n1C` (single isomer, unassigned) [Compound P5-B, 2-[[5-(ethylsulfonimidoyl)-2-methyl-6-[3-methyl-6-(trifluoromethyl)imidazo[4,5-b]pyridin-2-yl]-3-pyridyl]oxy]-2-methyl-propanenitrile], for which the “Mortality (%)” value came out at 100% with Myzus persicae [2] (Myzus persicae (systemic), concentration 24 ppm) and 100% with Diabrotica balteata (concentration 3.125 ppm). For the same compound, the percent effect (mortality or growth inhibition) at 200 ppm with Euschistus heros and in the series on Plutella xylostella [4] was at least 80% throughout.

Consider `CCS(=N)(=O)c1cc(OC(C)(C)C#N)cnc1-c1cn2cnc(SC(F)(F)F)cc2n1` (single isomer, unassigned) [Compound P7-A, 2-[[5-(ethylsulfonimidoyl)-6-[7-(trifluoromethylsulfanyl)imidazo[1,2-c]pyrimidin-2-yl]-3-pyridyl]oxy]-2-methyl-propanenitrile], for which the mortality at 200 ppm in the series with Myzus persicae [1] and in the series with Bemisia tabaci was at least 80% throughout. The mortality at 50 ppm with Bemisia tabaci (concentration 50 ppm) stood at 80%. This compound returned a mortality at 24 ppm in the series on Myzus persicae [2] of at least 80%. Moreover, the percent effect (mortality or growth inhibition) at 200 ppm with Euschistus heros and in the series with Diabrotica balteata was at least 80% throughout. Also, in the series with Spodoptera littoralis, the percent control (mortality, anti-feedant effect or growth inhibition) at 200 ppm was at least 80%.

In the case of `CCS(=N)(=O)c1cc(C2(C#N)CC2)cnc1-c1nc2cc(C(F)(F)F)n(OC)c(=O)c2n1C` (single isomer, unassigned) [Compound P8-A, 1-[5-(ethylsulfonimidoyl)-6-[5-methoxy-3-methyl-4-oxo-6-(trifluoromethyl)imidazo[4,5-c]pyridin-2-yl]-3-pyridyl]cyclopropanecarbonitrile], the mortality at 200 ppm with Myzus persicae [1] and in the series on Bemisia tabaci was at least 80% throughout. Also, in the series with Myzus persicae [2], the mortality at 24 ppm is at least 80%. Besides, the percent effect (mortality or growth inhibition) at 200 ppm with Euschistus heros and in the series with Diabrotica balteata was at least 80% each time. In the series on Spodoptera littoralis, the percent control (mortality, anti-feedant effect or growth inhibition) at 200 ppm was at least 80%.

As for `CCn1c(C(F)(F)F)cc2nc(-c3ncc(C4(C#N)CC4)cc3S(=N)(=O)CC)n(C)c2c1=O` (single isomer, unassigned) [Compound P14-A, 1-[6-[5-ethyl-3-methyl-4-oxo-6-(trifluoromethyl)imidazo[4,5-c]pyridin-2-yl]-5-(ethylsulfonimidoyl)-3-pyridyl]cyclopropanecarbonitrile], the mortality at 200 ppm with Myzus persicae [1] and with Bemisia tabaci was at least 80% in each case. In the series on Myzus persicae [2], this compound gave a mortality at 24 ppm of at least 80%. Further, the percent effect (mortality or growth inhibition) at 200 ppm in the series on Euschistus heros, with Diabrotica balteata and with Plutella xylostella [4] was at least 80% in each case. Further, the percent control (mortality, anti-feedant effect or growth inhibition) at 200 ppm with Spodoptera littoralis was at least 80%. The “Mortality (%)” value in the series with Diabrotica balteata (concentration 50 ppm) came out at 80%.

For `CCS(=N)(=O)c1cc(OC(C)(C)C#N)c(C)nc1-c1nc2cc(C(F)(F)F)ncc2n1C` (single isomer, unassigned) [Compound P17-B, 2-[[5-(ethylsulfonimidoyl)-2-methyl-6-[3-methyl-6-(trifluoromethyl)imidazo[4,5-c]pyridin-2-yl]-3-pyridyl]oxy]-2-methyl-propanenitrile], in the series with Euschistus heros, the percent effect (mortality or growth inhibition) at 200 ppm is at least 80%. Also, the percent control (mortality, anti-feedant effect or growth inhibition) at 200 ppm in the series on Spodoptera littoralis is at least 80%.

As for `CCS(=N)(=O)c1cc(C2(C#N)CC2)ccc1-c1nc2cc(C(F)(F)F)ncc2n1C` (single isomer, unassigned) [Compound P18-B, 1-[3-(ethylsulfonimidoyl)-4-[3-methyl-6-(trifluoromethyl)imidazo[4,5-c]pyridin-2-yl]phenyl]cyclopropanecarbonitrile], the mortality at 12.5 ppm in the series on Bemisia tabaci (concentration 12.5 ppm) was 80%. Moreover, the percent effect (mortality or growth inhibition) at 200 ppm with Euschistus heros is at least 80%. Also, in the series with Diabrotica balteata (concentration 50 ppm), the mortality at 50 ppm worked out at 100%.
